target: T1, Recombinant human BRD4 containing dual bromodomains (BRD4-BD12 (1-477)) (Homo sapiens, UniProt O60885); assay: BRD4 Alphascreen binding assay
T1 construct: Recombinant human BRD4 containing dual bromodomains (BRD4-BD12 (1-477)); made in house; host or cells: E. coli BL21-CodonPlus (DE3), modified pET vector
How it was run: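 AlphaScreen proximity between Ni-chelate-bound BRD4-BD12 (1-477) and streptavidin-captured H4 K5/K8/K12/K16-acetyl peptide measured after 1 h room-temperature compound incubation and 30 min with 7.5 μg/ml beads. Buffer: 50 mM HEPES pH 7.5, 50 mM NaCl, 0.01% BSA, 0.01% Triton X-100; data plate-normalized and four-parameter fit for IC50.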

Compared with `Cc1noc(C)c1-c1cnc2c(c1)c(-c1ccc(C(=O)O)cc1)cn2[C@@H](C)c1ccccn1` [P-0001, (S)-4-(5-(3,5-dimethylisoxazol-4-yl)-1-(1-(pyridin-2-yl)ethyl)-1H-pyrrolo[2,3-b]pyridin-3-yl)benzoic acid], `Cc1noc(C)c1-c1cnc2c(c1)c(-c1ccc(C(=O)O)cc1)cn2C(C)c1ccccn1` (stereo not shown) [P-0080, 4-(5-(3,5-dimethylisoxazol-4-yl)-1-(1-(pyridin-2-yl)ethyl)-1H-pyrrolo[2,3-b]pyridin-3-yl)benzoic acid] is lower in IC50: 8 to 1000 µM for the first, 1 to 8 µM for the second. The second is the more potent here.

First: Cc1noc(C)c1-c1cnc2c(c1)c(-c1ccc(C(=O)O)cc1)cn2C(c1ccccn1)C1CCCC1 (stereo not shown) [P-0002, 4-(1-(cyclopentyl(pyridin-2-yl)methyl)-5-(3,5-dimethylisoxazol-4-yl)-1H-pyrrolo[2,3-b]pyridin-3-yl)benzoic acid]
Second: Cc1noc(C)c1-c1cnc2c(c1)c(-c1ccc(C(=O)O)cc1)cn2C(c1ccccn1)C1CCCCC1 (stereo not shown) [P-0004, 4-(1-(cyclohexyl(pyridin-2-yl)methyl)-5-(3,5-dimethylisoxazol-4-yl)-1H-pyrrolo[2,3-b]pyridin-3-yl)benzoic acid]
The IC50 of the first is lower: 0.0001 to 1 µM for the first, 8 to 1000 µM for the second.

`Cc1noc(C)c1-c1cnc2c(c1)c(-c1ccccc1)cn2C(c1ccccn1)C1CCCC1` (stereo not shown) [P-0003, 4-(1-(cyclopentyl(pyridin-2-yl)methyl)-3-phenyl-1H-pyrrolo[2,3-b]pyridin-5-yl)-3,5-dimethylisoxazole] and `Cc1noc(C)c1-c1cnc2c(c1)c(-c1cccc(C(=O)O)c1)cn2C(c1ccccn1)C1CCC1` (stereo not shown) [P-0073, 3-(1-(cyclobutyl(pyridin-2-yl)methyl)-5-(3,5-dimethylisoxazol-4-yl)-1H-pyrrolo[2,3-b]pyridin-3-yl)benzoic acid] fall in the same range of IC50: 8 to 1000 µM for the first, 8 to 1000 µM for the second.

Compared with `COC(=O)c1ccc(-c2cn(S(=O)(=O)c3ccc(C)cc3)c3ncc(-c4c(C)noc4C)cc23)cc1` [P-0005, methyl 4-(5-(3,5-dimethylisoxazol-4-yl)-1-tosyl-1H-pyrrolo[2,3-b]pyridin-3-yl)benzoate], `Cc1noc(C)c1-c1cnc2c(c1)c(-c1ccnc(C(=O)O)c1)cn2S(=O)(=O)c1ccccc1` [P-0055, 4-(5-(3,5-dimethylisoxazol-4-yl)-1-(phenylsulfonyl)-1H-pyrrolo[2,3-b]pyridin-3-yl)picolinic acid] is lower in IC50: 8 to 1000 µM for the first, 0.0001 to 1 µM for the second. The second is the more potent here.

First: COc1cccc(Cn2cc(-c3cccc(C(=O)O)c3)c3cc(-c4c(C)noc4C)cnc32)c1 [P-0056, 3-(5-(3,5-dimethylisoxazol-4-yl)-1-(3-methoxybenzyl)-1H-pyrrolo[2,3-]pyridin-3-yl)benzoic acid]
Second: Cc1cccc(Cn2cc(-c3cccc(C(=O)O)c3)c3cc(-c4c(C)noc4C)cnc32)c1 [P-0062, 3-(5-(3,5-dimethylisoxazol-4-yl)-1-(3-methylbenzyl)-1H-pyrrolo[2,3-b]pyridin-3-yl)benzoic acid]
The IC50 of the first is lower: 1 to 8 µM for the first, 8 to 1000 µM for the second.

`COc1cccc(Cn2cc(-c3ccnc(C(=O)O)c3)c3cc(-c4c(C)noc4C)cnc32)c1` [P-0057, 4-(5-(3,5-dimethylisoxazol-4-yl)-1-(3-methoxybenzyl)-1H-pyrrolo[2,3-b]pyridin-3-yl)picolinic acid] and `Cc1noc(C)c1-c1cnc2c(c1)c(-c1cccc(C(=O)O)c1)cn2Cc1cccc(F)c1` [P-0060, 3-(5-(3,5-dimethylisoxazol-4-yl)-1-(3-fluorobenzyl)-1H-pyrrolo[2,3-b]pyridin-3-yl)benzoic acid] fall in the same range of IC50: 1 to 8 µM for the first, 1 to 8 µM for the second.

Compared with `Cc1noc(C)c1-c1cnc2c(c1)c(-c1cccc(C(=O)O)c1)cn2C(C1CC1)C1CC1` [P-0058, 3-(1-(dicyclopropylmethyl)-5-(3,5-dimethylisoxazol-4-yl)-1H-pyrrolo[2,3-b]pyridin-3-yl)benzoic acid], `Cc1noc(C)c1-c1cnc2c(c1)c(-c1cccc(C(=O)O)c1)cn2C(C1CCC1)C1CCC1` [P-0072, 3-(1-(dicyclobutylmethyl)-5-(3,5-dimethylisoxazol-4-yl)-1H-pyrrolo[2,3-b]pyridin-3-yl)benzoic acid] is lower in IC50: 8 to 1000 µM for the first, 1 to 8 µM for the second. The second is the more potent here.

`Cc1noc(C)c1-c1cnc2c(c1)c(-c1cccc(C(=O)O)c1)cn2Cc1cccc(OC(F)(F)F)c1` [P-0059, 3-(5-(3,5-dimethylisoxazol-4-yl)-1-(3-(trifluoromethoxy)benzyl)-1H-pyrrolo[2,3-b]pyridin-3-yl)benzoic acid] and `Cc1noc(C)c1-c1cnc2c(c1)c(-c1cccc(C(=O)O)c1)cn2Cc1cccc(C(F)(F)F)c1` [P-0063, 3-(5-(3,5-dimethylisoxazol-4-yl)-1-(3-(trifluoromethyl)benzyl)-1H-pyrrolo[2,3-b]pyridin-3-yl)benzoic acid] fall in the same range of IC50: 8 to 1000 µM for the first, 8 to 1000 µM for the second.

Compared with `Cc1noc(C)c1-c1cnc2c(c1)c(-c1cccc(C(=O)O)c1)cn2Cc1cccc(Cl)c1` [P-0061, 3-(1-(3-chlorobenzyl)-5-(3,5-dimethylisoxazol-4-yl)-1H-pyrrolo[2,3-b]pyridin-3-yl)benzoic acid], `Cc1noc(C)c1-c1cnc2c(c1)c(-c1cccc(C(=O)NO)c1)cn2Cc1ccccc1` [P-0079, 3-(1-benzyl-5-(3,5-dimethylisoxazol-4-yl)-1H-pyrrolo[2,3-b]pyridin-3-yl)-N-hydroxybenzamide] is lower in IC50: 8 to 1000 µM for the first, 1 to 8 µM for the second. The second is the more potent here.

First: Cc1noc(C)c1-c1cnc2c(CC3CCC3)cn(-c3ccc(C(=O)O)cc3OC(F)F)c2c1 [P-0064, 4-(3-(cyclobutylmethyl)-6-(3,5-dimethylisoxazol-4-yl)-1H-pyrrolo[3,2-b]pyridin-1-yl)-3-(difluoromethoxy)benzoic acid]
Second: Cc1noc(C)c1-c1cnc2c(CC3CCC3)cn(-c3ccc(C(=O)O)cc3OC(F)(F)F)c2c1 [P-0066, 4-(3-(cyclobutylmethyl)-6-(3,5-dimethylisoxazol-4-yl)-1H-pyrrolo[3,2-b]pyridin-1-yl)-3-(trifluoromethoxy)benzoic acid]
The IC50 of the first is lower: 1 to 8 µM for the first, 8 to 1000 µM for the second. The first is the more potent here.

`Cc1noc(C)c1-c1cnc2c(CC3CC3)cn(-c3ccnc(C(=O)O)c3)c2c1` [P-0065, 4-(3-(cyclopropylmethyl)-6-(3,5-dimethylisoxazol-4-yl)-1H-pyrrolo[3,2-b]pyridin-1-yl)picolinic acid] and `Cc1noc(C)c1-c1cnc2c(CC3CCC3)cn(-c3ccnc(C#N)c3)c2c1` [P-0077, 4-(3-(cyclobutylmethyl)-6-(3,5-dimethylisoxazol-4-yl)-1H-pyrrolo[3,2-b]pyridin-1-yl)picolinonitrile] fall in the same range of IC50: 1 to 8 µM for the first, 1 to 8 µM for the second.

First: COc1cc(C(=O)O)cc(OC)c1-n1cc(CC2CCC2)c2ncc(-c3c(C)noc3C)cc21 [P-0067, 4-(3-(cyclobutylmethyl)-6-(3,5-dimethylisoxazol-4-yl)-1H-pyrrolo[3,2-b]pyridin-1-yl)-3,5-dimethoxybenzoic acid]
Second: Cc1noc(C)c1-c1cnc2c(CC3CCC3)cn(-c3c(Cl)cc(C(=O)O)cc3Cl)c2c1 [P-0074, 3,5-dichloro-4-(3-(cyclobutylmethyl)-6-(3,5-dimethylisoxazol-4-yl)-1H-pyrrolo[3,2-b]pyridin-1-yl)benzoic acid]
The IC50 of the first is lower: 1 to 8 µM for the first, 8 to 1000 µM for the second. The first is the more potent here.

`Cc1noc(C)c1-c1cnc2c(CC3CCC3)cn(-c3ccc(S(C)(=O)=O)c(F)c3)c2c1` [P-0068, 4-(3-(cyclobutylmethyl)-1-(3-fluoro-4-(methylsulfonyl)phenyl)-1H-pyrrolo[3,2-b]pyridin-6-yl)-3,5-dimethylisoxazole] and `Cc1noc(C)c1-c1cnc2c(CC3CCC3)cn(-c3ccc(C#N)cc3)c2c1` [P-0076, 4-(3-(cyclobutylmethyl)-6-(3,5-dimethylisoxazol-4-yl)-1H-pyrrolo[3,2-b]pyridin-1-yl)benzonitrile] fall in the same range of IC50: 8 to 1000 µM for the first, 8 to 1000 µM for the second.

First: Cc1noc(C)c1-c1cnc2c(c1)c(C#CC(=O)O)cn2Cc1ccccc1 [P-0069, 3-(1-benzyl-5-(3,5-dimethylisoxazol-4-yl)-1H-pyrrolo[2,3-b]pyridin-3-yl)propiolic acid]
Second: Cc1noc(C)c1-c1cnc2c(c1)c(-c1cccc(C(=O)NC#N)c1)cn2Cc1ccccc1 [P-0078, 3-(1-benzyl-5-(3,5-dimethylisoxazol-4-yl)-1H-pyrrolo[2,3-b]pyridin-3-yl)-N-cyanobenzamide]
The IC50 of the first is higher: 8 to 1000 µM for the first, 1 to 8 µM for the second. The second is the more potent here.

Compared with `Cc1noc(C)c1-c1cnc2c(c1)c(-c1ccc(C(=O)O)cc1OC(F)(F)F)cn2[C@@H](C)c1ccccn1` [P-0070, (S)-4-(5-(3,5-dimethylisoxazol-4-yl)-1-(1-(pyridin-2-yl)ethyl)-1H-pyrrolo[2,3-b]pyridin-3-yl)-3-(trifluoromethoxy)benzoic acid], `Cc1noc(C)c1-c1cnc2c(c1)c(-c1ccc(C(=O)O)cc1OC(F)F)cn2[C@@H](C)c1ccccn1` [P-0071, (S)-3-(difluoromethoxy)-4-(5-(3,5-dimethylisoxazol-4-yl)-1-(1-(pyridin-2-yl)ethyl)-1H-pyrrolo[2,3-b]pyridin-3-yl)benzoic acid] is lower in IC50: 8 to 1000 µM for the first, 1 to 8 µM for the second.

Compared with `Cc1cc(C(=O)O)cnc1-n1cc(CC2CCC2)c2ncc(-c3c(C)noc3C)cc21` [P-0075, 6-(3-(cyclobutylmethyl)-6-(3,5-dimethylisoxazol-4-yl)-1H-pyrrolo[3,2-b]pyridin-1-yl)-5-methylnicotinic acid], `Cc1noc(C)c1-c1cnc2c(c1)c(-c1cccc(S(=O)(=O)NC3CC3)c1)cn2Cc1ccccc1` [P-0083, 3-(1-benzyl-5-(3,5-dimethylisoxazol-4-yl)-1H-pyrrolo[2,3-b]pyridin-3-yl)-N-cyclopropylbenzenesulfonamide] is lower in IC50: 8 to 1000 µM for the first, 1 to 8 µM for the second. The second is the more potent here.

`Cc1noc(C)c1-c1cnc2c(c1)c(-c1cccc(S(N)(=O)=O)c1)cn2Cc1ccccc1` [P-0081, 3-(1-benzyl-5-(3,5-dimethylisoxazol-4-yl)-1H-pyrrolo[2,3-b]pyridin-3-yl)benzenesulfonamide] and `CNS(=O)(=O)c1cccc(-c2cn(Cc3ccccc3)c3ncc(-c4c(C)noc4C)cc23)c1` [P-0082, 3-(1-benzyl-5-(3,5-dimethylisoxazol-4-yl)-1H-pyrrolo[2,3-b]pyridin-3-yl)-N-methylbenzenesulfonamide] fall in the same range of IC50: 1 to 8 µM for the first, 1 to 8 µM for the second.
